Experimental data taken from patent US20040101916A1, “Treatment of liver diseases” (priority 2002, published 2004).

Experiments:
GADD45α = settings: HepG2 clone, Northern blot
Description: (§1) Expression of GADD45α and GADD45β after alcohol treatment was determined by Northern blot in HepG2 clone.

GADD45β [1] = settings: HepG2 clone, Northern blot
Description: as §1

[2] = tested on: NF-κB box of the GADD45β promoter region; assay: Gel retardation assay, nuclear proteins of CL-48 cells on NF-κB box of the GADD45β promoter; format: cell-based; settings: CL-48 nuclear proteins, 48 hours after 2.0 mM SAMe or 200 mM alcohol, compared to non-treated control cells
Description: Nuclear proteins were extracted as mentioned above. End-labeled oligonucleotides corresponding to the NF-κB box of the GADD45β promoter region were incubated with the extracted nuclear proteins, and the binding complexes were then separated on a 6% retardation gel.

GADD45β [3] = assay: Northern blot of GADD45β expression after SAMe treatment in CL-48 normal liver cells; format: cell-based; settings: CL-48 cells, 0, 1.0 mM, 2.0 mM SAMe, 72 hours
Description: (§2) CL-48 and HepG2 cells were treated with 0, 1.0 mM, and 2.0 mM SAMe. After 72 hours of treatment, Northern blot was performed to analyze the expression of GADD45β, using 18S RNA as an internal loading control.

GADD45β [4] = assay: Northern blot of GADD45β expression after SAMe treatment in HepG2 cells; format: cell-based, human
Description: as §2
(§3) Expression of GADD45β after SAMe treatment under different p53 backgrounds was examined by Northern blot.

GADD45β [5] = assay: Northern blot of GADD45β expression after SAMe treatment in Hep3B (p53 null); format: cell-based, human
Source text: as §3

[6] = tested on: CCAAT/NF-Y boxes of the GADD45β promoter region; assay: Gel retardation / super-shift assay, nuclear proteins of CL-48 cells on CCAAT/NF-Y boxes of the GADD45β promoter; format: cell-based; settings: CL-48 nuclear proteins
Description: End-labeled oligonucleotides corresponding to the CCAAT/NF-Y boxes of the GADD45β promoter region were incubated with the extracted nuclear proteins, and the binding complexes were then separated on a 6% retardation gel. Protein binding sites on the GADD45β promoter Pα region were identified using unlabeled oligonucleotide competitors and NF-Y antibodies.

SMILES	expression of GADD45α after alcohol treatment (GADD45α)	expression of GADD45β after alcohol treatment (GADD45β [1])	amount of binding complexes on NF-κB box oligonucleotides [2]	induction of GADD45β expression (GADD45β [3])	expression of GADD45β after SAMe treatment (GADD45β [4]; HepG2 (p53 wild type), different dose ranges)	induction of GADD45β expression (GADD45β [4]; HepG2 cells, 0, 1.0 mM, 2.0 mM SAMe, 72 hours)	expression of GADD45β after SAMe treatment (GADD45β [5])	amount of major protein-binding band on CCAAT/NF-Y oligonucleotides ([6]; 48 hours after 2.0 mM SAMe, compared to non-treated controls)	super-shift of binding complex with NF-Y antibodies ([6]; SAMe-treated samples)
CCO [alcohol]	increases in a dose-dependent manner	does not change	decreased amount of one binding complex and an increased amount of another binding complex						
C[S+](CC[C@H](N)C(=O)O)C[C@H]1O[C@@H](n2cnc3c(N)ncnc32)[C@H](O)[C@@H]1O (stereo partly shown) [SAMe, S-Adenosylmethionine]			decreased amount of one binding complex and an increased amount of another binding complex	induced by a low dose of SAMe in CL-48 cells, and the induction reaches plateau at a higher dose of SAMe	up-regulated	the induction remains dose-dependent	failed to be induced	amount of a major band decreased	the binding complex is shifted
